Experimental data taken from article PMC3849131, “^18 F-click labeling and preclinical evaluation of a new ^18 F-folate for PET imaging” (EJNMMI Research, 2013).
Read-outs that look alike come from different tables or passages of the source.

Tests used:
[1] = reversed-phase HPLC; cited from earlier work
[2] = tested on: KB tumor-bearing mice; conditions: 45 min p.i., n = 4, cited from earlier work
[3] = Relative lipophilicity (capacity factor k’) by reversed-phase HPLC; format: physicochemical; conditions: methanol-phosphoric acid buffer eluent, pH 2
Method: The relative lipophilicity of 6 was determined as capacity factor k’ (k’ = (tretention - tsolvent) / tsolvent) by reversed-phase HPLC using a methanol-phosphoric acid buffer eluent system at pH 2. […] This method has already been described elsewhere. The capacity factor k’ (k’ = (tretention - tsolvent) / tsolvent) was determined using reversed-phase HPLC and enables different (radio)folates to be compared based on their polarity. The values determined can be used to give hint to the in vivo behavior in terms of the degree of hepatobiliary excretion by comparison with literature examples.

[4] = biological target: T1, folate receptor (Homo sapiens, UniProt P15328); assay: Displacement assay with [^3H]folic acid on FR-positive human KB cells; format: binding
T1 construct: using [^3H]folic acid and human KB cells in cell suspension; endogenous in cells; host or cells: human KB cells
T1 sequence (P15328 25-257): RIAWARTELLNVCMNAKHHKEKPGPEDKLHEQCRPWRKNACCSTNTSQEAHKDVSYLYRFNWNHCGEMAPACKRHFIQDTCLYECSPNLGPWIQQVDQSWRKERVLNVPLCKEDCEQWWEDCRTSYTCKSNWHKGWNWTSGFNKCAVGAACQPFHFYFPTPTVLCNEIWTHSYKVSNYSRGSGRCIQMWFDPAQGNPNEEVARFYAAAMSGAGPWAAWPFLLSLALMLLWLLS
Method: FR-positive human KB cells were kept under folate-deficient conditions to adjust the folate concentration levels to that of the human serum.
Figure 1 Displacement assay. […] Experiments were conducted in triplicate (n = 3).

Structure (SMILES): Nc1nc2ncc(CNc3ccc(C(=O)NC(CCC(=O)NCCCCn4cc(CCCC[18F])nn4)C(=O)O)cc3)nc2c(=O)[nH]1 (stereo not drawn) [^18 F-click folate]
- capacity factor k’ [1]: 2.28
- Ratio of tumor to Kidney [2]: 0.19 ± 1.38
- Ratio of tumor to Liver [2]: 1.18 ± 0.69
- %ID/g Blood ([2]; Blood): 0.13 ± 0.01 %ID/g
- %ID/g Bone ([2]; Bone): 0.13 ± 0.01 %ID/g
- %ID/g Feces ([2]; Feces): 56.00 ± 27.64 %ID/g
- %ID/g Gall bladder ([2]; Gall bladder): 667.4 ± 530.1 %ID/g
- %ID/g Heart ([2]; Heart): 0.90 ± 0.22 %ID/g
- %ID/g Intestines (empty) ([2]; Intestines (empty)): 19.59 ± 5.26 %ID/g
- %ID/g Tumor ([2]; KB tumor): 3.13 ± 0.83 %ID/g
- %ID/g Kidneys ([2]; Kidneys): 16.53 ± 2.22 %ID/g
- %ID/g Liver ([2]; Liver): 1.71 ± 0.14 %ID/g
- %ID/g Lung ([2]; Lung): 0.85 ± 0.04 %ID/g
- %ID/g Spleen ([2]; Spleen): 0.33 ± 0.12 %ID/g
- %ID/g Stomach (empty) ([2]; Stomach (empty)): 2.50 ± 0.6 %ID/g

Structure (SMILES): Nc1nc2ncc(CNc3ccc(C(=O)N[C@@H](CCC(=O)NCCOCCOCCOCCn4cc(COCCOCCOCCF)nn4)C(=O)O)cc3)nc2c(=O)[nH]1 [Compound 6]
- capacity factor k’ [3]: 1.12
- IC50 [4]: 3.1 nM
- Ki [4]: 1.6 nM
